These results are taken from patent US9992994B2, “Agricultural and detergent compositions containing a tertiary amide as adjuvant or as surfactant” (Taminco BVBA, priority 2011, dated 2018).

The test system of series [1] is common lambsquarter (Chenopodium album L.; CHEAL). The series is described as follows: adjuvant for Carfentrazon-ethyl test. It is filed as in vivo. The conditions noted are these: Spotlight Plus, 7 DAT. Here is the method:
In this test we looked at the performance with Carfentrazone-ethyl (Spotlight Plus from FMC) on common lambsquarter (Chenopodium album L.; CHEAL).
After emergence, the seedlings were thinned to two plants per pot for the efficacy experiments. The common lambsquarters were treated at the four-leaf stage. The fresh weights of the plants were measured 7 days after treatment (7 DAT).
The following herbicide was used in the treatment solutions: Carfentrazone-ethyl, Spotlight Plus (FMC) ME formulation, 60 g a.i./L.
Demineralized water was used as the carrier.

For series [2] the following is noted: 20° C., cited from earlier work.
In series [3] the test system is Black nightshade (Solanum nigrum L.; SOLNI). Particulars: Dicamba DMA-salt, Banvel, 16 DAT.
Protocol: Black nightshade (Solanum nigrum L.; SOLNI) was grown in a growth chamber under 14 h of light, at 18/12 (±0.5) ° C. (day/night) temperature, and in 70/80 (±5)% (day/night) relative humidity. Light was provided by high-pressure mercury lamps and fluorescent tubes to give 250 pmol m^−2 s^−1 at leaf level. The plants were grown in 11-cm-diam plastic pots filled with a mixture of sand and humic potting soil (1:2 by volume). The pots were placed on subirrigation matting, which was wetted daily with a half-strength nutrient solution. After emergence, the seedlings were thinned to one plant per pot for the efficacy experiments. Black nightshade was treated at the four-leaf stage. The fresh weights of the plants were measured 16 days after treatment (16 DAT).
The treatment solutions were applied with an air-pressured laboratory track sprayer having 1.2-mm nozzles fitted with a perforated (0.6 mm) whirling pin and delivering 200 L/ha at 303 kPa.
The experiment was conducted with four replicates per experiment according to a completely randomized design.
The subject of series [4] is Wild oat (Avena fatua L.; AVEFA). The series is described as follows: adjuvant for Fenoxaprop-P-ethyl test. It is filed as in vivo. Particulars: Puma EW, 21 DAT. As to the method:
In this test the performance with Fenoxaprop-P-ethyl was looked at. Plant material. […] After emergence, the seedlings were thinned to four plants per pot for the efficacy experiments. The plants were treated at the three-leaf stage. The fresh weights of the plants were measured 21 days after treatment (21 DAT). […] The following herbicide was included in the treatment solutions: Fenoxaprop-P-ethyl, Puma EW formulation, 69 g a.i./L. […] Demineralized water was used as the carrier.

Series [5] in a line: Manometric Respirometry Test (biodegradability). Particulars: after 28 days. As to the method:
Biodegradability test of N,N-bis(3-(dimethylamino) propyl)-octanamide was tested in a Manometric Respirometry Test according to Commission Regulation 440/2008/EC, Method C.4-D of May 30, 2008: Manometric Respirometry Test (EEC Publication N° L142/496, May 2008).
The percentage of biodegradation was 65% after 28 days.

For another series, the system named is winter wheat (cv. Ilias). The series is described as follows: adjuvant for glyphosate test on wheat. Particulars: where named, 0.25% w/v, 21 DAT. It is filed as in vivo. As to the method: (§1) Wheat plants were used as a model for difficult to wet grasses and black nightshade was used as a model for a plant with an easy to wet but difficult to permeate leaf surface.
(§2) After emergence, the wheat seedlings were thinned to six plants per pot for the efficacy experiments. Black nightshade seedlings were thinned to one plant per pot. Black nightshade and wheat were treated at the four- and the three-leaf stage, respectively. The fresh weights of the plants were measured 14 days after treatment (14 DAT; black nightshade) or 21 days after treatment (21 DAT; wheat).
(§3) Demineralized water was used as the carrier. […] Based on previous work, these rates were 20.3 g ae/ha (equivalent to 0.6 mM) on black nightshade and 77.8 g ae/ha (equivalent to 2.3 mM at 200 L/ha) on wheat (ae=acid equivalent).
(§4) The fresh weight of the untreated plant was taken as a reference (100%). […] An industrial standard was also included in the test series.

Series [6] in a line: solubility / miscibility in water and dodecane. It is filed as physicochemical. From the text: R1 is preferably an aliphatic group, in particular a fatty chain, having 5-13 carbon atoms (i.e. a C5 to C13 carbon chain), preferably 5-9 carbon atoms. This embodiment is especially advantageous when the amide is a diamine of formula (I). […] This is not only the case when one or more of the R2, R3, R4 and R5 groups are ethanol and/or tertiary propanol groups, but also when these groups are alkyl groups, in particular C1 to C3 alkyl groups. The R2, R3, R4 and R5 groups are preferably methyl groups. The corresponding DMAPA amides, on the other hand, show only poor water solubility.
Furthermore, they can be used efficiently in highly concentrated (so-called ‘high load’) agrochemical compositions to prevent phase separation to occur. The amphiphilic behaviour of the bisDMAPA amides is further illustrated in example 4.

In the next series the test system is Black nightshade (SOLNI). The series is described as follows: adjuvant for glyphosate test on black nightshade. It is filed as in vivo. Particulars: where named, 0.25% w/v, 14 DAT. As to the method:
as §1, §2, §3, §4

Where [7] appears, read: sub-optimal rate + N,N-bis(3-(dimethylamino)propyl)octanamide 0.25% (w/v).
Setting [8] is: sub-optimal rate, no adjuvant, average of four replicates.

Molecules are shown by their SMILES. Where two headings read alike, the source gives them in different places.

As for `CCOC(=O)C(Cl)Cc1cc(-n2nc(C)n(C(F)F)c2=O)c(F)cc1Cl` (centres unmarked) [Carfentrazone-ethyl], the “Fresh Weight CHEAL (g) Herbicide + Adjuvant” value in series [1] (setting [7]) was 0.7 g. The “Fresh weight CHEAL (g) Only herbicide” value in series [1] (setting [8]) came out at 4.9 g. Further, the “log Kow” value in series [2] (no pH given) was 3.4.
For the compound `COc1c(Cl)ccc(Cl)c1C(=O)O` [Dicamba], in series [3] (setting [7]), the “Fresh Weight SOLNI (g) Herbicide + Adjuvant” value amounted to 6.7 g. Besides, in series [3] (setting [8]), the “Fresh weight SOLNI (g) Only herbicide” value stood at 10.8 g. Moreover, the “log Kow” value in series [2] (at pH 7) is −1.9.
Consider `CCOC(=O)[C@@H](C)Oc1ccc(Oc2nc3ccc(Cl)cc3o2)cc1` [Fenoxaprop-P-ethyl], for which, in series [4] (setting [7]), the “Fresh Weight Wild Oat (g) Herbicide + Compound” value stood at 1.4 g. Also, the “Fresh weight Wild Oat (g) Only herbicide” value in series [4] (setting [8]) was 16.4 g. In addition, in series [2] (no pH given), the “log Kow” value was 4.3.
Take `CCCCCCCC(=O)N(CCCN(C)C)CCCN(C)C` [N,N-bis(3-(dimethylamino)propyl)octanamide]: in series [5], the biodegradability classification entry is on record as “Readily Biodegradable” and the percentage of biodegradation came to 65%. In addition, the “Fresh Weight WHEAT” value with winter wheat (cv. Ilias) (IPA-glyphosate 2.3 mM (77.8 g ae/ha at 200 L/ha)) came to 2.3 g. In the series with winter wheat (cv. Ilias) (untreated plant = 100%, IPA-glyphosate 2.3 mM), the “Relative weight WHEAT (%)” value turned out to be 13.0%. In series [6], the solubility in dodecane result was “completely soluble” and the solubility in water result is given as “completely soluble”. Also, the “Fresh Weight SOLNI” value in the series with Black nightshade (SOLNI) (IPA-glyphosate 0.6 mM (20.3 g ae/ha at 200 L/ha)) turned out to be 1.6 g. Further, in the series with Black nightshade (SOLNI) (untreated plant = 100%, IPA-glyphosate 0.6 mM), the “Relative weight SOLNI (%)” value was 14.1%.
